Marks after values point to notes of the source that are not given here.
Key:
[1] = biological target: MOR (Rattus norvegicus, UniProt P33535); assay type: binding
[2] = tested on: MOR; conditions: read-out: GPI IC50; DALDA literature characterisation, no reference given; cited from earlier work
[3] = Metabolic plasma stability assay; assay type: in vitro ADME; conditions: up to 20 h
[4] = cited from earlier work
[5] = tested on: Caco-2 cell monolayers; test: Caco-2 cell monolayer translocation; assay type: in vitro ADME
[6] = tested on: C57Bl6 mice; test: Mouse tail-flick assay; assay type: in vivo; conditions: intravenous, nonlinear regression of log dose–response curve
[7] = cis-concentration 13 nM, absence of unlabelled compound, means ± SE, n = 3

Sequence of MOR (Rattus norvegicus, UniProt P33535) (P33535 whole entry): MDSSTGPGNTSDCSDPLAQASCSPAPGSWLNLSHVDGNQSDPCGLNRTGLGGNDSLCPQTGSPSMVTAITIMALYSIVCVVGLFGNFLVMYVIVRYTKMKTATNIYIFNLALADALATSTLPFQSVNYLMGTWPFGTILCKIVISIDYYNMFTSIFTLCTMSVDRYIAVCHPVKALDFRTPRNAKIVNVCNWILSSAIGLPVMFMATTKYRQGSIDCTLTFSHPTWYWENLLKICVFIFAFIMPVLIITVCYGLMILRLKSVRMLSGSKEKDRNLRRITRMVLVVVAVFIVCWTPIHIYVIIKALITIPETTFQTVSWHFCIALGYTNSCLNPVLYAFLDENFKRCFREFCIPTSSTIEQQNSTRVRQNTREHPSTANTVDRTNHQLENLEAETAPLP

## N=C(N)NCCC[C@@H](NC(=O)[C@@H](N)Cc1ccc(OCc2cn([C@@H]3O[C@H](CO)[C@H](O)[C@H](O)[C@H]3O)nn2)cc1)C(=O)N[C@@H](Cc1ccccc1)C(=O)N[C@@H](CCCCN)C(N)=O [compound 3]
[1]; compound 3 vs DALDA
  loss in binding (MOR) relative to DALDA: 22 fold
[1]; μ/δ receptor binding selectivity ratio
  Ki ratio μ/δ: >130

## Tyr-D-Arg-Phe-Lys-NH2 [DALDA]
[2]
  IC50: 254 nM

## Cc1cc(O)cc(C)c1C[C@H](N)C(=O)N[C@H](CCCNC(=N)N)C(=O)N[C@@H](Cc1ccccc1)C(=O)N[C@@H](Cc1cn([C@@H]2O[C@H](CO)[C@@H](O)[C@H](O)[C@H]2O)nn1)C(N)=O [compound 5]
[3]
  degradation in human plasma: no degradation products could be observed

## OC[C@@H](O)[C@@H](O)[C@H](O)[C@H](O)CO [mannitol]
[4]
  oral bioavailability: ~ 20%

## Cc1cc(O)cc(C)c1C[C@H](N)C(=O)N[C@H](CCCNC(=N)N)C(=O)N[C@@H](Cc1ccccc1)C(=O)N[C@@H](Cc1cn([C@@H]2O[C@H](CO)[C@H](O)[C@H](O)[C@H]2O)nn1)C(N)=O [compound 4]
[3]
  degradation in human plasma: no degradation products could be observed
[5]; 21 day old Caco-2 monolayers, 13 nM
  A–B and B–A permeabilities compared to mannitol: slightly higher than the permeability of the passive flux marker mannitol
[5]; [7]
  Flux A–B (lumen–blood): 2.59 ± 0.15 nmol·cm^−2·min^−1 × 10^−7
  Flux B–A (blood–lumen): 2.96 ± 0.13 nmol·cm^−2·min^−1 × 10^−7
[6]
  ED50 tail-flick test: 0.27* mg/kg
